Reference: ChEMBL document CHEMBL3046616, “Design, synthesis, and biological activities of milbemycin analogues” (2011)
In brackets after ≈: the same amount, converted by molar mass.

Columns and labels:
Assay type in all cases: functional
Aphis fabae [1] = assay: Insecticidal activity against Aphis fabae (black bean aphid) infested soybean tender shoots at 0.625 mg/L measured 48 hr post compound dose by modified FAO dip method
Aphis fabae [2] = assay: Insecticidal activity against Aphis fabae (black bean aphid) infested soybean tender shoots at 2.5 mg/L measured 48 hr post compound dose by modified FAO dip method
Aphis fabae [3] = assay: Insecticidal activity against Aphis fabae (black bean aphid) infested soybean tender shoots at 10 mg/L measured 48 hr post compound dose by modified FAO dip method
Mythimna separata [4] = assay: Insecticidal activity against Mythimna separata (Oriental armyworm) fourth-instar larvae reared compound pre-treated corn leaves assessed as insect mortality at 0.625 mg/L measured 2 days post compound dose
Mythimna separata [5] = assay: Insecticidal activity against Mythimna separata (Oriental armyworm) fourth-instar larvae reared compound pre-treated corn leaves assessed as insect mortality at 2.5 mg/L measured 2 days post compound dose
Mythimna separata [6] = assay: Insecticidal activity against Mythimna separata (Oriental armyworm) fourth-instar larvae reared compound pre-treated corn leaves assessed as insect mortality at 10 mg/L measured 2 days post compound dose
Tetranychus cinnabarinus = assay: Insecticidal activity against Tetranychus cinnabarinus (carmine spider mite) […] assessed as larvicidal activity at 0.006 mg/L after 48 hr
Mythimna separata [7] = assay: Insecticidal activity against Mythimna separata (Oriental armyworm) fourth-instar larvae reared compound pre-treated corn leaves assessed as insect mortality at 200 mg/L measured 2 days post compound dose
Aphis fabae [8] = assay: Insecticidal activity against Aphis fabae (black bean aphid) infested soybean tender shoots measured 48 hr post compound dose by modified FAO dip method; design: concentration or dose not given beside the values
Aphis fabae [9] = assay: Insecticidal activity against Aphis fabae (black bean aphid) infested soybean tender shoots at 0.0625 mg/L measured 48 hr post compound dose by modified FAO dip method
Aphis fabae [10] = assay: Insecticidal activity against Aphis fabae (black bean aphid) infested soybean tender shoots at 0.125 mg/L measured 48 hr post compound dose by modified FAO dip method
Aphis fabae [11] = assay: Insecticidal activity against Aphis fabae (black bean aphid) infested soybean tender shoots at 0.25 mg/L measured 48 hr post compound dose by modified FAO dip method
Aphis fabae [12] = assay: Insecticidal activity against Aphis fabae (black bean aphid) infested soybean tender shoots at 0.5 mg/L measured 48 hr post compound dose by modified FAO dip method
Aphis fabae [13] = assay: Insecticidal activity against Aphis fabae (black bean aphid) infested soybean tender shoots at 1 mg/L measured 48 hr post compound dose by modified FAO dip method
Aphis fabae [14] = assay: Insecticidal activity against Aphis fabae (black bean aphid) infested soybean tender shoots at 2 mg/L measured 48 hr post compound dose by modified FAO dip method
Mythimna separata [15] = assay: Insecticidal activity against fourth-instar larvae of Mythimna separata (Oriental armyworm) reared on compound pre-treated corn leaves assessed as insect mortality at 0.03125 mg/L measured 2 days post compound dose
Mythimna separata [16] = assay: Insecticidal activity against fourth-instar larvae of Mythimna separata (Oriental armyworm) reared on compound pre-treated corn leaves assessed as insect mortality at 0.0625 mg/L measured 2 days post compound dose
Mythimna separata [17] = assay: Insecticidal activity against fourth-instar larvae of Mythimna separata (Oriental armyworm) reared on compound pre-treated corn leaves assessed as insect mortality at 0.125 mg/L measured 2 days post compound dose
Mythimna separata [18] = assay: Insecticidal activity against Mythimna separata (Oriental armyworm) fourth-instar larvae reared compound pre-treated corn leaves assessed as insect mortality at 0.25 mg/L measured 2 days post compound dose
Mythimna separata [19] = assay: Insecticidal activity against Mythimna separata (Oriental armyworm) fourth-instar larvae reared compound pre-treated corn leaves assessed as insect mortality at 0.5 mg/L measured 2 days post compound dose
Mythimna separata [20] = assay: Insecticidal activity against Mythimna separata (Oriental armyworm) fourth-instar larvae reared compound pre-treated corn leaves assessed as insect mortality at 1 mg/L measured 2 days post compound dose
Mythimna separata [21] = assay: Insecticidal activity against Mythimna separata (Oriental armyworm) fourth-instar larvae reared compound pre-treated corn leaves assessed as insect mortality measured 2 days post compound dose
Aphis fabae [22] = assay: Insecticidal activity against Aphis fabae (black bean aphid infested soybean tender shoots measured 48 hr post compound dose by modified FAO dip method

Question: Which results are given for `CCC(C)[C@H]1O[C@]2(CC[C@@H]1C)C[C@@H]1C[C@@H](C/C=C(\C)[C@@H](O[C@H]3C[C@H](OC)[C@@H](OC(=O)c4ccc(F)cc4)[C@H](C)O3)[C@@H](C)/C=C/C=C3\CO[C@@H]4[C@H](O)C(C)=C[C@@H](C(=O)O1)[C@]34O)O2` (stereo partly drawn)?
Answer: mortality at 0.625 µg/mL (Aphis fabae [1]): 97.1%; mortality at 2.5 µg/mL (Aphis fabae [2]): 100%; mortality at 10 µg/mL (Aphis fabae [3]): 100%; mortality at 0.625 µg/mL (Mythimna separata [4]): 0%; mortality at 2.5 µg/mL (Mythimna separata [5]): 16.7%; mortality at 10 µg/mL (Mythimna separata [6]): 55.8%; mortality at 0.006 µg/mL (Tetranychus cinnabarinus): 9.9%

Question: Which results are given for `CCC(C)[C@H]1O[C@]2(CC[C@@H]1C)C[C@@H]1C[C@@H](C/C=C(\C)[C@@H](OC(=O)c3cc(F)c(Cl)nc3Cl)[C@@H](C)/C=C/C=C3\CO[C@@H]4[C@H](O)C(C)=C[C@@H](C(=O)O1)[C@]34O)O2` (stereo partly drawn)?
Answer: mortality at 0.625 µg/mL (Aphis fabae [1]): 8.3%; mortality at 2.5 µg/mL (Aphis fabae [2]): 38.2%; mortality at 10 µg/mL (Aphis fabae [3]): 66.9%; mortality at 200 µg/mL (Mythimna separata [7]): 50.9%; mortality at 0.006 µg/mL (Tetranychus cinnabarinus): 7.7%

Question: With `CCC(C)[C@H]1O[C@]2(CC[C@@H]1C)C[C@@H]1C[C@@H](C/C=C(\C)[C@@H](OC(=O)c3ccc(Cl)cc3)[C@@H](C)/C=C/C=C3\CO[C@@H]4[C@H](O)C(C)=C[C@@H](C(=O)O1)[C@]34O)O2` (stereo partly drawn) as the compound, how does the mortality (Aphis fabae [8]) read?
Answer: 87.9%

Question: What about the mortality at 0.625 µg/mL (Mythimna separata [4]) of the same compound?
Answer: 0%

Question: And the mortality at 2.5 µg/mL (Mythimna separata [5])?
Answer: 24.9%

Question: What about the mortality at 10 µg/mL (Mythimna separata [6]) of the same compound?
Answer: 100%

Question: What about the mortality at 0.006 µg/mL (Tetranychus cinnabarinus) of the same compound?
Answer: 26.9%

Question: Which mortality at 0.0625 µg/mL (Aphis fabae [9]) does the source give for `CCC(C)[C@H]1O[C@]2(CC[C@@H]1C)C[C@@H]1C[C@@H](C/C=C(\C)[C@@H](OC(=O)C(C)(C)CC)[C@@H](C)/C=C/C=C3\CO[C@@H]4[C@H](O)C(C)=C[C@@H](C(=O)O1)[C@]34O)O2` (stereo partly drawn) here?
Answer: 38%

Question: What about the mortality at 0.125 µg/mL (Aphis fabae [10]) of the same compound?
Answer: 45.5%

Question: And the mortality at 0.25 µg/mL (Aphis fabae [11])?
Answer: 57.6%

Question: And the mortality at 0.5 µg/mL (Aphis fabae [12])?
Answer: 68.2%

Question: What about the mortality at 1 µg/mL (Aphis fabae [13]) of the same compound?
Answer: 85.4%

Question: And the mortality at 2 µg/mL (Aphis fabae [14])?
Answer: 92.9%

Question: And the mortality at 10 µg/mL (Aphis fabae [3])?
Answer: 100%

Question: And the mortality at 0.03125 µg/mL (Mythimna separata [15])?
Answer: 0%

Question: And the mortality at 0.0625 µg/mL (Mythimna separata [16])?
Answer: 0%

Question: What about the mortality at 0.125 µg/mL (Mythimna separata [17]) of the same compound?
Answer: 16.7%

Question: What about the mortality at 0.25 µg/mL (Mythimna separata [18]) of the same compound?
Answer: 60%

Question: What about the mortality at 0.5 µg/mL (Mythimna separata [19]) of the same compound?
Answer: 75.2%

Question: What about the mortality at 1 µg/mL (Mythimna separata [20]) of the same compound?
Answer: 96.9%

Question: What about the mortality at 10 µg/mL (Mythimna separata [6]) of the same compound?
Answer: 100%

Question: What about the mortality at 0.006 µg/mL (Tetranychus cinnabarinus) of the same compound?
Answer: 60.7%

Question: What about the LC50 (Mythimna separata [21]) of the same compound?
Answer: 0.25 µg/mL (≈ 0.365 µM)

Question: And the LC50 (Aphis fabae [22]; Aphis fabae, 48 h)?
Answer: 0.15 µg/mL (≈ 0.219 µM)

Question: How did the mortality (Aphis fabae [9]) turn out when IVERMECTIN was run?
Answer: 53.6%

Question: And the mortality (Aphis fabae [10])?
Answer: 66.3%

Question: And the mortality (Aphis fabae [11])?
Answer: 74.1%

Question: And the mortality (Aphis fabae [12])?
Answer: 89.1%

Question: What about the mortality (Aphis fabae [13]) of the same compound?
Answer: 93.5%

Question: What about the mortality (Aphis fabae [14]) of the same compound?
Answer: 100%

Question: What about the mortality (Mythimna separata [15]) of the same compound?
Answer: 0%

Question: What about the mortality (Mythimna separata [16]) of the same compound?
Answer: 6.4%

Question: What about the mortality (Mythimna separata [17]) of the same compound?
Answer: 29.1%

Question: And the mortality (Mythimna separata [18])?
Answer: 66.7%

Question: What about the mortality (Mythimna separata [19]) of the same compound?
Answer: 90.9%

Question: What about the mortality (Mythimna separata [20]) of the same compound?
Answer: 100%

Question: What about the mortality (Tetranychus cinnabarinus) of the same compound?
Answer: 57.9%

Question: And the LC50 (Mythimna separata [21])?
Answer: 0.19 µg/mL

Question: What about the LC50 (Aphis fabae [22]) of the same compound?
Answer: 0.06 µg/mL

Question: And the LC90 (Aphis fabae [22])?
Answer: 0.646 µg/mL

Question: What does the source list for `CCC(C)[C@H]1O[C@]2(CC[C@@H]1C)C[C@@H]1C[C@@H](C/C=C(\C)[C@@H](O[C@H]3C[C@H](OC)[C@@H](OC(=O)CC(C)(C)C)[C@H](C)O3)[C@@H](C)/C=C/C=C3\CO[C@@H]4[C@H](O)C(C)=C[C@@H](C(=O)O1)[C@]34O)O2` (stereo partly drawn)?
Answer: mortality at 0.625 µg/mL (Aphis fabae [1]): 0%; mortality at 2.5 µg/mL (Aphis fabae [2]): 30.2%; mortality at 10 µg/mL (Aphis fabae [3]): 80.2%; mortality at 0.625 µg/mL (Mythimna separata [4]): 0%; mortality at 2.5 µg/mL (Mythimna separata [5]): 51.2%; mortality at 10 µg/mL (Mythimna separata [6]): 88.6%; mortality at 0.006 µg/mL (Tetranychus cinnabarinus): 34.2%

Question: With `CCC(C)[C@H]1O[C@]2(CC[C@@H]1C)C[C@@H]1C[C@@H](C/C=C(\C)[C@@H](OC(=O)Nc3cccc(C)c3)[C@@H](C)/C=C/C=C3\CO[C@@H]4[C@H](O)C(C)=C[C@@H](C(=O)O1)[C@]34O)O2` (stereo partly drawn) as the compound, how does the mortality at 0.625 µg/mL (Aphis fabae [1]) read?
Answer: 86.1%

Question: What about the mortality at 2.5 µg/mL (Aphis fabae [2]) of the same compound?
Answer: 98.9%

Question: And the mortality at 10 µg/mL (Aphis fabae [3])?
Answer: 100%

Question: What about the mortality at 0.625 µg/mL (Mythimna separata [4]) of the same compound?
Answer: 43.2%

Question: What about the mortality at 2.5 µg/mL (Mythimna separata [5]) of the same compound?
Answer: 76.7%

Question: What about the mortality at 10 µg/mL (Mythimna separata [6]) of the same compound?
Answer: 98.6%

Question: And the mortality at 0.006 µg/mL (Tetranychus cinnabarinus)?
Answer: 56.6%

Question: What does the source list for `CCC(C)[C@H]1O[C@]2(CC[C@@H]1C)C[C@@H]1C[C@@H](C/C=C(\C)[C@@H](O[C@H]3C[C@H](OC)[C@@H](OC(=O)/C(=N\OC)c4ccccc4)[C@H](C)O3)[C@@H](C)/C=C/C=C3\CO[C@@H]4[C@H](O)C(C)=C[C@@H](C(=O)O1)[C@]34O)O2` (stereo partly drawn)?
Answer: mortality at 0.0625 µg/mL (Aphis fabae [9]): 0%; mortality at 0.125 µg/mL (Aphis fabae [10]): 3.3%; mortality at 0.25 µg/mL (Aphis fabae [11]): 34.2%; mortality at 0.5 µg/mL (Aphis fabae [12]): 70%; mortality at 1 µg/mL (Aphis fabae [13]): 100%; mortality at 0.03125 µg/mL (Mythimna separata [15]): 0%; mortality at 0.0625 µg/mL (Mythimna separata [16]): 0%; mortality at 0.125 µg/mL (Mythimna separata [17]): 6.3%; mortality at 0.25 µg/mL (Mythimna separata [18]): 30.2%; mortality at 0.5 µg/mL (Mythimna separata [19]): 80%; mortality at 1 µg/mL (Mythimna separata [20]): 100%; mortality at 0.006 µg/mL (Tetranychus cinnabarinus): 38.7%; LC50 (Mythimna separata [21]): 0.35 µg/mL (≈ 0.392 µM); LC50 (Aphis fabae [22]; Aphis fabae, 48 h): 0.12 µg/mL (≈ 0.135 µM)
